Earlier results on one compound are cited in patent US20030073608A1 (priority 2001, published 2003).

SMILES strings stand for the structures.

For data set [1], the system named is ventral tegmental dopamine cells (A10). The settings on record: limbic-related A10 cells; Bymaster et al., Eur. J. Pharmacol. 1998.
Data set [2] relates to substantia nigra dopamine cells (A9). Particulars: Bymaster et al., Eur. J. Pharmacol. 1998.

Turning to `CCCSc1nsnc1[C@H]1CN2CCC[C@H]1C2` [PTAC], the “antagonism of electrophysiological responses in ventral tegmental dopamine cells (A10)” value in data set [1] was “antagonizes electrophysiological responses”. Further, the “antagonism of substantia nigra dopamine cells (A9)” value in data set [2] was “does not antagonize”.
